Experiments:
[1] = Metabolite identification in rat plasma, urine, feces and bile; assay type: in vivo, SD rats; conditions: for Relative abundance of MS peak areas, Rat Bile 0-48 h / Relative abundance of MS peak areas, Rat Feces 0-48 h / Relative abundance of MS peak areas, Rat Urine 0-48 h: oral 6 mg/kg BPI-460372, average of male and female pooled samples; for Relative abundance of MS peak areas, Rat Plasma 0-24 h: oral 12 mg/kg BPI-460372, average of male and female pooled samples
Procedure: The plasma samples were acquired from SD rats (n=6, 3 female and 3 male) and beagle dogs (n=6, 3 female and 3 male) after administration of 12 mg/kg and 8 mg/kg of BPI-460372, respectively. The rat urine, feces, and bile samples were acquired in SD rats after administration of 6 mg/kg of BPI-460372.
Equal volume from each rat was pooled together to get 1 male and 1 female 0-24 h plasma samples. An equal percentage by volume of individual urine sample (0-8, 8-24, and 24-48 h) from 3 female and 3 male rats was pooled by time interval across rats, respectively, resulting in two pooled urine samples (1 male and 1 female). An equal percentage by weight of individual feces samples (0-8, 8-24, and 24-48 h) was pooled by time interval across female and male rats, resulting in two pooled fecal samples. An equal percentage by volume of individual bile samples (0-4, 4-8, 8-24, and 24-48 h) was pooled by time interval across female and male rats, resulting in two pooled bile samples. […] Equal volumes from 3 female and 3 male rats were pooled together to get two 0-48 h plasma samples. For blank samples of plasma, urine, and bile, equal volume was pooled across subjects. For a blank sample of feces, equal weight was pooled across rats.
The pooled plasma, feces, and bile samples were extracted by adding 3-fold volume of acetonitrile, and the mixture was vortexed (1 min) and sonicated (1 min) before centrifugation (7220 g, 5 min). The pooled urine samples were centrifuged (7220 g, 5 min). Then the supernatant was transferred into a clean tube and evaporated to dryness under the nitrogen stream. The residues were redissolved with an appropriate volume of acetonitrile/water (20: 80, v: v). After centrifugation, the redissolved solution was transferred into an HPLC vial for UHPLC-Orbitrap-HRMS (15000 g, 10 min, 4°C).

[2] = test system: cysteine S-conjugate β-lyase; test: Effect of cysteine S-conjugate β-lyase inhibitor AOAA on the metabolism of BPI-460372 (rat urine); conditions: for Area ratio in rat urine, mean (%CV): 20 mg/kg BPI-460372 + 100 mg/kg AOAA, once daily 21 days, urine 0-48 h on day 21; for Change of area ratio in rat urine on coadministration with AOAA: 20 mg/kg BPI-460372 with versus without 100 mg/kg AOAA
Procedure: To investigate the effect of cysteine S-conjugate β-lyase on the metabolism of BPI-460372, SD rats were treated with 20 mg/kg BPI-460372 alone (n=3, male) or 20 mg/kg BPI-460372 coadministration with 100 mg/kg cysteine S-conjugate β-lyase inhibitor AOAA (n=3, male), once daily for 21 consecutive days. On day 21, urine samples were collected at 0-8, 8-24 and 24-48 h. The same percentage of urine samples from each rat was taken at these three time intervals and mixed. The samples were analyzed by LC-MS/MS and then semi-quantified using the peak area ratio of analyte versus IS.

[3] = test system: dog hepatocytes; test: Metabolism and metabolite formation in hepatocytes; assay type: in vitro ADME, beagle dog; conditions: beagle dog hepatocytes, 10 µM BPI-460372, 4 h incubation
Text: (§1) All the samples were duplicates.

[4] = test system: rat hepatocytes; test: Metabolism and metabolite formation in hepatocytes; assay type: in vitro ADME, SD rat; conditions: SD rat hepatocytes, 10 µM BPI-460372, 4 h incubation
Text: as §1

[5] = test system: mouse hepatocytes; test: Metabolism and metabolite formation in hepatocytes; assay type: in vitro ADME, ICR mouse; conditions: ICR mouse hepatocytes, 10 µM BPI-460372, 4 h incubation
Text: as §1

[6] = test system: human hepatocytes; test: Metabolism and metabolite formation in hepatocytes; conditions: human hepatocytes, 10 µM BPI-460372, 4 h incubation
[7] = test system: monkey hepatocytes; test: Metabolism and metabolite formation in hepatocytes; assay type: in vitro ADME, cynomolgus monkey; conditions: cynomolgus monkey hepatocytes, 10 µM BPI-460372, 4 h incubation
Text: as §1

[8] = Metabolic stability in hepatocytes; conditions: hepatocytes
Procedure: (§2) After mixing, 20 μL of cell suspension was serially transferred into 200 μL of cold acetonitrile containing IS at the time points of 0, 5, 15, 30, 60, and 120 min, respectively.
(§3) The metabolic stability was assessed by measuring the depletion of substrate. The half-life (t1/2), intrinsic clearance (CLint, in virto, µL·min^-1·million cells^-1), whole liver intrinsic clearance (CLint, in vivo, mL·min-1·kg^-1), and in vivo hepatic clearance (CLH, mL·min-1·kg^-1) were calculated following a reported method. In the calculation of CLH, the fraction drug unbound (Fub) was set as 1. The hepatic blood flow, liver weight, and hepatocellularity of five species were used for the calculation of CLint, in vivo [13, 14]. The hepatic extraction ratio (Eh) means the ratio of CLH to hepatic blood flow.

[9] = test system: dog hepatocytes; test: Metabolic stability in hepatocytes; conditions: dog hepatocytes
Procedure: as §2, §3

[10] = test system: human hepatocytes; test: Metabolic stability in hepatocytes; conditions: human hepatocytes
Procedure: as §2, §3

[11] = test system: monkey hepatocytes; test: Metabolic stability in hepatocytes; conditions: monkey hepatocytes
Procedure: as §2, §3

[12] = test system: mouse hepatocytes; test: Metabolic stability in hepatocytes; conditions: mouse hepatocytes
Procedure: as §2, §3

[13] = test system: rat hepatocytes; test: Metabolic stability in hepatocytes; conditions: rat hepatocytes
Procedure: as §2, §3

SMILES: NC(CSCC(O)C(=O)N1CC(n2c(=O)n(-c3ccc(C(F)(F)F)cc3)c3cncnc32)C1)C(=O)O (centres unmarked) [M526]
- Relative abundance of MS peak areas, Rat Bile 0-48 h [1]: 1.52%

SMILES: CC(=O)NC(CSCCC(=O)N1CC(n2c(=O)n(-c3ccc(C(F)(F)F)cc3)c3cncnc32)C1)C(=O)O (centres unmarked) [M552]
- Relative abundance of MS peak areas, Rat Bile 0-48 h [1]: 0.56%
- Relative abundance of MS peak areas, Rat Feces 0-48 h [1]: 1.65%
- Relative abundance of MS peak areas, Rat Urine 0-48 h [1]: 6.73%
- Relative abundance of MS peak areas, Rat Plasma 0-24 h [1]: 0.015%

SMILES: CC(=O)NC(CSCC(O)C(=O)N1CC(n2c(=O)n(-c3ccc(C(F)(F)F)cc3)c3cncnc32)C1)C(=O)O (centres unmarked) [M568]
- Relative abundance of MS peak areas, Rat Bile 0-48 h [1]: 3.22%
- Relative abundance of MS peak areas, Rat Feces 0-48 h [1]: 0.45%
- Relative abundance of MS peak areas, Rat Urine 0-48 h [1]: 1.80%
- Area ratio in rat urine, mean (%CV) [2]: 0.06 (20)
- Change of area ratio in rat urine on coadministration with AOAA [2]: reduced

SMILES: CC(=O)NC(CSCC(F)C(=O)N1CC(n2c(=O)n(-c3ccc(C(F)(F)F)cc3)c3nccnc32)C1)C(=O)O (centres unmarked) [M570]
- UV (314 nm) Peak Areas Relative Abundance [3]: 2.44%
- UV (314 nm) Peak Areas Relative Abundance [4]: 2.6%
- UV (314 nm) Peak Areas Relative Abundance [5]: 3.57%
- Relative abundance of MS peak areas, Rat Bile 0-48 h [1]: 45.40%
- Relative abundance of MS peak areas, Rat Feces 0-48 h [1]: 3.96%
- Relative abundance of MS peak areas, Rat Urine 0-48 h [1]: 34.25%
- Relative abundance of MS peak areas, Rat Plasma 0-24 h [1]: 0.12%
- UV (314 nm) Peak Areas Relative Abundance [6]: 1.48%
- Area ratio in rat urine, mean (%CV) [2]: 0.08 (40)
- Change of area ratio in rat urine on coadministration with AOAA [2]: reduced

SMILES: NC(CCC(=O)NC(CSCC(O)C(=O)N1CC(n2c(=O)n(-c3ccc(C(F)(F)F)cc3)c3nccnc32)C1)C(=O)NCC(=O)O)C(=O)O (centres unmarked) [M712]
- UV (314 nm) Peak Areas Relative Abundance [7]: +
- UV (314 nm) Peak Areas Relative Abundance [3]: +
- UV (314 nm) Peak Areas Relative Abundance [4]: +
- UV (314 nm) Peak Areas Relative Abundance [5]: 1.43%
- Relative abundance of MS peak areas, Rat Bile 0-48 h [1]: 0.10%
- UV (314 nm) Peak Areas Relative Abundance [6]: +

SMILES: NC(CCC(=O)NC(CSCC(F)C(=O)N1CC(n2c(=O)n(-c3ccc(C(F)(F)F)cc3)c3nccnc32)C1)C(=O)NCC(=O)O)C(=O)O (centres unmarked) [M714]
- UV (314 nm) Peak Areas Relative Abundance [7]: 3.01%
- UV (314 nm) Peak Areas Relative Abundance [3]: 22.65%
- UV (314 nm) Peak Areas Relative Abundance [4]: 18.4%
- UV (314 nm) Peak Areas Relative Abundance [5]: 24.76%
- Relative abundance of MS peak areas, Rat Bile 0-48 h [1]: 3.27%
- UV (314 nm) Peak Areas Relative Abundance [6]: 3.01%

SMILES: C[C@]12CC[C@H]3[C@@H](CCC4=CC(=O)CC[C@@]43C)[C@@H]1CC[C@@H]2O [Testosterone, testosterone]
- half-life at 1 µM ([8]; ICR, mouse): 14.9 min
- half-life at 1 µM ([8]; SD, rat): 13.9 min
- half-life at 1 µM ([8]; beagle, dog): 14.1 min
- half-life at 1 µM ([8]; human): 13.3 min
- half-life at 1 µM ([8]; monkey): 11.5 min
- CLint, in virto ([9]; 1 µM): 49.1 µL·min^-1·Million cells^-1
- CLH ([9]; Fub set as 1): 28.3 mL/min/kg
- CLint, in vivo ([9]; scaled to whole liver): 337.8 mL/min/kg
- CLint, in virto ([10]; 1 µM): 52.2 µL·min^-1·Million cells^-1
- CLH ([10]; Fub set as 1): 18.7 mL/min/kg
- CLint, in vivo ([10]; scaled to whole liver): 188.7 mL/min/kg
- CLH ([11]; Fub set as 1): 36.6 mL/min/kg
- CLint, in vivo ([11]; scaled to whole liver): 217.3 mL/min/kg
- CLint, in virto ([12]; 1 µM): 46.6 µL·min^-1·Million cells^-1
- CLH ([12]; Fub set as 1): 77.4 mL/min/kg
- CLint, in vivo ([12]; scaled to whole liver): 554.1 mL/min/kg
- CLH ([13]; Fub set as 1): 44.6 mL/min/kg
- CLint, in vivo ([13]; scaled to whole liver): 233.5 mL/min/kg

— paper PMC12376128, “In vitro and In Vivo Drug Metabolism Analysis of BPI-460372 - A Covalent TEAD1/3/4 Inhibitor” (Current Drug Metabolism, 2025)
